Reference: ChEMBL document CHEMBL3774391, “Novel nicotine analogues with potential anti-mycobacterial activity” (Bioorg Med Chem, 2016)
≈ marks a conversion by molar mass, not a printed value. Calls of active or inactive are those of the source. The rule behind the calls is not given here.

Key:
[1] = tested on: Mycobacterium tuberculosis; test: Antimycobacterial activity against Mycobacterium tuberculosis clinical isolate assessed as growth inhibition after 28 days; type: functional, organism-based
[2] = tested on: Mycobacterium tuberculosis; test: Antimycobacterial activity against Mycobacterium tuberculosis H37Rv […] assessed as bacterial colonies at 200 ug/ml after 28 days by Lowenstein-Jensen method; type: functional
[3] = tested on: Mycobacterium tuberculosis; test: Antimycobacterial activity against Mycobacterium tuberculosis H37Rv […] assessed as confluent growth at 50 ug/ml after 28 days by Lowenstein-Jensen method; type: functional, organism-based
[4] = tested on: Mycobacterium tuberculosis; test: Antimycobacterial activity against Mycobacterium tuberculosis H37Rv […] assessed as confluent growth at 200 ug/ml after 28 days by Lowenstein-Jensen method; type: functional, organism-based
[5] = target: Neuronal acetylcholine receptor; alpha4/beta2 (Homo sapiens) (UniProt P17787+P43681); test: Displacement of [3H]cytisine from human recombinant alpha4beta2 nACh receptor expressed in human SH-SY5Y cells at 1 X 10^-8 M to 1 X 10^-7 M; type: cell-based
[6] = tested on: Mycobacterium tuberculosis; test: Antimycobacterial activity against Mycobacterium tuberculosis H37Rv […] assessed as bacterial colonies at 50 ug/ml after 28 days by Lowenstein-Jensen method; type: functional
[7] = tested on: Mycobacterium tuberculosis; test: Antimycobacterial activity against Mycobacterium tuberculosis H37Rv […] assessed as growth inhibition at 0.2 ug/ml after 28 days by Lowenstein-Jensen method; type: functional, organism-based
[8] = tested on: Mycobacterium tuberculosis; test: Antimycobacterial activity against Mycobacterium tuberculosis clinical isolate assessed as growth inhibition after 5 days by microplate Alamar blue assay; type: functional; settings: 120 h
[9] = Half life in po dosed Wistar rat plasma
[10] = tested on: Mycobacterium tuberculosis; test: Antimycobacterial activity against Mycobacterium tuberculosis H37Rv […] assessed as growth inhibition at 40 ug/ml after 28 days by Lowenstein-Jensen method; type: functional, organism-based
[11] = Cmax in Wistar rat at 5 mg/kg, iv; type: ADME, organism-based; design: dose 5 mg/kg, route intravenous; settings: in vivo
Rattus norvegicus = test: Volume of distribution in Wistar rat at 5 mg/kg, po; type: ADME, organism-based; settings: in vivo
[12] = Acute toxicity in po dosed overnight fasted Wistar rat; type: organism-based; settings: in vivo
[13] = Toxicity in Wistar rat administered qd via oral gavage with repeated dose for 28 days; type: organism-based; settings: in vivo
[14] = Half life in Wistar rat at 5 mg/kg, po; type: ADME, organism-based; settings: in vivo
[15] = Tmax in Wistar rat at 5 mg/kg, iv; type: ADME, organism-based; settings: in vivo
[16] = Half life in Wistar rat at 5 mg/kg, iv; type: ADME, organism-based; settings: in vivo
[17] = Tmax in Wistar rat at 5 mg/kg, po; type: ADME, organism-based; settings: in vivo
[18] = Cmax in Wistar rat at 5 mg/kg, po; type: ADME, organism-based; design: dose 5 mg/kg, route oral; settings: in vivo
[19] = Volume of distribution in Wistar rat at 5 mg/kg, iv; type: ADME, organism-based; settings: in vivo

With `CC(=O)c1cccc(-c2cncc(C(=O)C3CCN(C)C3=O)c2)c1` (stereo not given) the Activity [1] was “inactive”, the Activity [2] was greater than 100 and the “growth inhibition (GI)” value [3] was “inactive”.

With `Cc1ccc(-c2cncc(C(=O)C3CCN(C)C3=O)c2)cc1` (stereo not given) the “growth inhibition (GI)” value [4] was “inactive”, the Activity [1] was “inactive” and the “growth inhibition (GI)” value [3] was “inactive”.

With `COc1cccc(-c2cncc(C(=O)C3CCN(C)C3=O)c2)c1` (stereo not given) the “growth inhibition (GI)” value [4] was “inactive”, the Activity [1] was “inactive” and the inhibition [5] was “inactive”. The “growth inhibition (GI)” value [3] was “inactive”.

In the case of `COc1ccc(-c2cncc(C(=O)C3CCN(C)C3=O)c2)cc1` (stereo not given), the Activity [1] is reported as “inactive”, the Activity [2] is reported as greater than 100 and the inhibition [5] is reported as “inactive”. The “growth inhibition (GI)” value [3] was “inactive”.

For `Cc1cccc(-c2cncc(C(=O)C3CCN(C)C3=O)c2)c1` (stereo not given), the Activity [6] was greater than 100, the Activity [1] was “inactive” and the Activity [2] was greater than 100. For the same compound, the inhibition [5] was less than 10%.

In the case of `NNC(=O)c1ccncc1` [ISONIAZID], the “growth inhibition (GI)” value [7] is reported as “Active” and the MIC [8] is reported as 0.00145 µM (≈ 0.199 ng/mL).

In the case of `CN1CCC(C(=O)c2cncc(-c3cccc(N)c3)c2)C1=O` (stereo not given), the “growth inhibition (GI)” value [4] is reported as “inactive”, the Activity [1] is reported as “inactive” and the “growth inhibition (GI)” value [3] is reported as “inactive”.

With `CN1CCC(C(=O)c2cncc(-c3cccc(O)c3)c2)C1=O` (stereo not given) the “growth inhibition (GI)” value [4] was “inactive”, the Activity [1] was “inactive” and the inhibition [5] was “inactive”. For the same compound, the “growth inhibition (GI)” value [3] was “inactive”.

For `CN1CCC[C@H]1c1cccnc1` [NICOTINE], the half-life [9] was 2 h.

Work on `CN1CCC(C(=O)c2cncc(-c3ccc(Cl)c(Cl)c3)c2)C1=O` (stereo not given) yielded an MIC [8] of 0.179 µM (≈ 62.5 ng/mL).

Compound `CN1CCC(C(=O)c2cncc(-c3cccc(Cl)c3Cl)c2)C1=O` (stereo not given) has an MIC [8] of 0.0093 µM (≈ 3.25 ng/mL).

For `CC(=O)Oc1ccc(-c2cncc(C(=O)C3CCN(C)C3=O)c2)cc1` (stereo not given), the Activity [6] was greater than 100, the Activity [1] was “inactive” and the Activity [2] was greater than 100. For the same compound, the inhibition [5] was “inactive”.

With `CN1CCC(C(=O)c2cncc(-c3ccc(C=O)cc3)c2)C1=O` (stereo not given) the Activity [1] was “inactive”, the Activity [2] was greater than 100 and the “growth inhibition (GI)” value [3] was “inactive”.

With `COc1ccccc1-c1cncc(C(=O)C2CCN(C)C2=O)c1` (stereo not given) the “growth inhibition (GI)” value [4] was “inactive”, the Activity [1] was “inactive” and the “growth inhibition (GI)” value [3] was “inactive”.

With `CN1CCC(C(=O)c2cncc(-c3cccc(C=O)c3)c2)C1=O` (stereo not given) the “growth inhibition (GI)” value [4] was “inactive”, the Activity [1] was “inactive” and the Activity [2] was greater than 100. For the same compound, the inhibition [5] was “inactive” and the “growth inhibition (GI)” value [3] was “inactive”.

In the case of `CN1CCC(C(=O)c2cncc(-c3cccc4ccccc34)c2)C1=O` (stereo not given), the “growth inhibition (GI)” value [4] is reported as “inactive”, the Activity [1] is reported as “inactive” and the “growth inhibition (GI)” value [3] is reported as “inactive”.

With `CCCCc1cncc(C(=O)C2CCN(C)C2=O)c1` (stereo not given) the “growth inhibition (GI)” value [4] was “inactive”, the Activity [1] was “inactive” and the inhibition [5] was “inactive”. For the same compound, the “growth inhibition (GI)” value [3] was “inactive”.

For `CN1CCC(C(=O)c2cncc(C3CC3)c2)C1=O` (stereo not given), the “growth inhibition (GI)” value [4] was “inactive”, the Activity [1] was “inactive” and the inhibition [5] was “inactive”. For the same compound, the “growth inhibition (GI)” value [3] was “inactive”.

With `CC(=O)c1ccc(-c2cncc(C(=O)C3CCN(C)C3=O)c2)s1` (stereo not given) the “growth inhibition (GI)” value [4] was “inactive”, the Activity [1] was “inactive” and the inhibition [5] was “inactive”. For the same compound, the “growth inhibition (GI)” value [3] was “inactive”.

With `CN1CCC(C(=O)c2cncc(-c3cccc([N+](=O)[O-])c3)c2)C1=O` (stereo not given) the Activity [1] was “inactive”, the Activity [2] was greater than 100 and the inhibition [5] was “inactive”. The “growth inhibition (GI)” value [3] was “inactive”.

With `CO[C@H]1/C=C/O[C@@]2(C)Oc3c(C)c(O)c4c(O)c(c(/C=N/N5CCN(C)CC5)c(O)c4c3C2=O)NC(=O)/C(C)=C\C=C\[C@H](C)[C@H](O)[C@@H](C)[C@@H](O)[C@@H](C)[C@H](OC(C)=O)[C@@H]1C` the “growth inhibition (GI)” value [10] was “Active”.

In the case of `CN1CCC(C(=O)c2cncc(-c3cccc(F)c3)c2)C1=O` (stereo not given), the “growth inhibition (GI)” value [4] is reported as “inactive”, the Activity [1] is reported as “inactive” and the “growth inhibition (GI)” value [3] is reported as “inactive”.

With `Cc1ccccc1-c1cncc(C(=O)C2CCN(C)C2=O)c1` (stereo not given) the “growth inhibition (GI)” value [4] was “inactive”, the Activity [1] was “inactive” and the “growth inhibition (GI)” value [3] was “inactive”.

For `CN1CCC(C(=O)c2cncc(-c3ccc(Cl)cc3)c2)C1=O` (stereo not given), the “growth inhibition (GI)” value [4] was “inactive”, the Activity [1] was “inactive” and the “growth inhibition (GI)” value [3] was “inactive”.

For `CN1CCC(C(=O)c2cncc(-c3ccc4ccccc4c3)c2)C1=O` (stereo not given), the Activity [1] was “inactive”, the Activity [2] was greater than 100 and the “growth inhibition (GI)” value [3] was “inactive”.

Work on `CN1CCC(C(=O)c2cncc(-c3ccc(Cl)cc3Cl)c2)C1=O` (stereo not given) yielded an MIC [8] of 0.00286 µM (≈ 0.999 ng/mL).

In the case of `CN1CCC(C(=O)c2cncc(-c3ccccc3Cl)c2)C1=O` (stereo not given), the Activity [1] is reported as “inactive”, the Activity [2] is reported as greater than 100 and the “growth inhibition (GI)” value [3] is reported as “inactive”.

In the case of `CN1CCC(C(=O)c2cncc(-c3ccccc3)c2)C1=O` (stereo not given), the “growth inhibition (GI)” value [4] is reported as “inactive”, the Activity [1] is reported as “inactive” and the inhibition [5] is reported as less than 10%. The “growth inhibition (GI)” value [3] was “inactive”.

In the case of `CN1CCC(C(=O)c2cncc(-c3ccc(F)cc3)c2)C1=O` (stereo not given), the “growth inhibition (GI)” value [4] is reported as “inactive”, the Activity [1] is reported as “inactive” and the inhibition [5] is reported as “inactive”. For the same compound, the “growth inhibition (GI)” value [3] was “inactive”.

For `CN1CCC(C(=O)c2cncc(-c3cc(Cl)ccc3Cl)c2)C1=O` (stereo not given), the MIC [8] was 0.286 µM (≈ 100 ng/mL).

Work on `CN1CCC(C(=O)c2cncc(-c3cc(Cl)cc(Cl)c3)c2)C1=O` (stereo not given) yielded a Cmax [11] of 3370 ng/mL, an Activity [6] greater than 100 and a Vd (Rattus norvegicus) of 27.36 L. It also gave an MIC [8] of 0.0286 µM (≈ 10 ng/mL), an LD50 [12] greater than 2000 mg/kg and an LD50 at 672 h [13] greater than 2000 mg/kg. For the same compound, the Activity [1] was “inactive”, the half-life [14] was greater than 24 h and the Tmax [15] was 3 min. For the same compound, the Activity [2] was greater than 100, the half-life [16] was 24 h and the inhibition [5] was “inactive”. It also gave a Tmax [17] of 1 h, a Cmax [18] of 2860 ng/mL and a Vd [19] of 23.2 L.
